Reference: PubChem BioAssay (NCI)
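Cells were grown in 96-well plates and exposed to each compound for 48 hours at five concentrations; endpoints were interpolated linearly between bracketing concentrations, or set to the highest concentration if not reached. At the GI50, growth is halved. The concentration for full growth arrest is given as TGI.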 *1 amine or outer side, *2 acyl side, *3 side chain or, on linkers, in order; H or OH if unused. Where a SMILES comes first, the peptide text is derived from it. [ ]: non-standard residue; d: D form. The star is where a group is joined. X11 = C/C=C/CC(C)C(O)[C@H](N[*:1])C(=O)[*:2]; Decanoyl = CCCCCCCCCC(=O)*; Leu(ol) = CC(C)C[C@H](N)CO; Iva = CC[C@](C)(N)C(=O)O; Aib = CC(C)(N)C(=O)O

Experiments:
Test in all cases: DTP human tumour cell line panel, 48 h
[1] = test system: OVCAR-4 ovarian
[2] = test system: HOP-62 NSCLC
[3] = test system: NCI-H522 lung
[4] = test system: 786-0 renal
[5] = test system: UACC-62 melanoma
[6] = test system: M14 melanoma
[7] = test system: HCT-15 colon
[8] = test system: NCI-H226 lung
[9] = test system: PC-3 prostate
[10] = test system: UACC-257 melanoma
[11] = test system: SR leukemia
[12] = test system: SNB-19 CNS
[13] = test system: SNB-75 CNS
[14] = test system: OVCAR-8 ovarian
[15] = test system: SF-295 CNS
[16] = test system: TK-10 renal
[17] = test system: HCT-116 colon
[18] = test system: A549 NSCLC
[19] = test system: SK-OV-3 ovarian
[20] = test system: NCI/ADR-RES ovarian
[21] = test system: MALME-3M melanoma
[22] = test system: BT-549 breast
[23] = test system: MCF7 breast
[24] = test system: HT29 colon
[25] = test system: HOP-92 NSCLC
[26] = test system: MDA-MB-231 breast
[27] = test system: COLO 205 colon
[28] = test system: MDA-MB-435
[29] = test system: SN12C renal
[30] = test system: KM12 colon
[31] = test system: K-562 leukemia
[32] = test system: T-47D breast
[33] = test system: NCI-H460 lung
[34] = test system: HL-60(TB) leukemia
[35] = test system: U251 CNS
[36] = test system: MOLT-4 leukemia
[37] = test system: SK-MEL-5 melanoma
[38] = test system: SK-MEL-2 melanoma
[39] = test system: A498 renal
[40] = test system: DU-145 prostate
[41] = test system: SF-539 CNS
[42] = test system: HS 578T breast
[43] = test system: CAKI-1 renal
[44] = test system: SK-MEL-28 melanoma
[45] = test system: OVCAR-5 ovarian
[46] = test system: NCI-H23 lung
[47] = test system: RXF 393 renal
[48] = test system: SF-268 CNS
[49] = test system: LOX IMVI melanoma
[50] = test system: SW-620 colon
[51] = test system: EKVX NSCLC
[52] = test system: IGROV1 ovarian
[53] = test system: RPMI-8226 leukemia
[54] = test system: ACHN renal
[55] = test system: HCC-2998 colon
[56] = test system: CCRF-CEM leukemia
[57] = test system: UO-31 renal
[58] = test system: OVCAR-3 ovarian

Which GI50 [1] does the source give for `C/C=C/CC(C)C(O)[C@H](NC(=O)[C@@H]1CCCN1C(=O)[C@](C)(CC)NC(=O)CCCCCCCCC)C(=O)N[C@@](C)(CC)C(=O)N[C@@H](CCC(N)=O)C(=O)N[C@H](CCC(N)=O)C(=O)NC(C)(C)C(=O)NC(C)(C)C(=O)N[C@@H](CCC(N)=O)C(=O)N[C@H](CC(C)C)C(=O)N[C@H](CO)CC(C)C` (stereo partly drawn) (Decanoyl-[Iva]P[X11][Iva]Q[dQ][Aib][Aib]Q[dL][Leu(ol)]) here?
The GI50 was 2150 nM.

What about the TGI [1] of the same compound?
Its TGI is 4800 nM.

What about the GI50 [2] of the same compound?
Its GI50 is 1630 nM.

What about the TGI [2] of the same compound?
Its TGI is 3270 nM.

And the GI50 [3]?
The GI50 was 1770 nM.

And the TGI [3]?
Its TGI is 3370 nM.

What about the GI50 [4] of the same compound?
The GI50 was 1810 nM.

And the TGI [4]?
The TGI was 3430 nM.

What about the GI50 [5] of the same compound?
Its GI50 is 1660 nM.

What about the TGI [5] of the same compound?
Its TGI is 3050 nM.

And the GI50 [6]?
The GI50 was 1800 nM.

What about the TGI [6] of the same compound?
The TGI was 3370 nM.

And the GI50 [7]?
Its GI50 is 1860 nM.

And the TGI [7]?
The TGI was 3670 nM.

And the GI50 [8]?
The GI50 was 1780 nM.

What about the TGI [8] of the same compound?
Its TGI is 3830 nM.

And the GI50 [9]?
Its GI50 is 1760 nM.

And the TGI [9]?
The TGI was 3260 nM.

And the GI50 [10]?
Its GI50 is 1740 nM.

What about the TGI [10] of the same compound?
The TGI was 3260 nM.

And the GI50 [11]?
The GI50 was 1610 nM.

What about the TGI [11] of the same compound?
Its TGI is 3430 nM.

What about the GI50 [12] of the same compound?
The GI50 was 1740 nM.

What about the TGI [12] of the same compound?
Its TGI is 3180 nM.

And the GI50 [13]?
Its GI50 is 1400 nM.

And the TGI [13]?
The TGI was 2800 nM.

And the GI50 [14]?
Its GI50 is 2040 nM.

What about the TGI [14] of the same compound?
Its TGI is 4240 nM.

What about the GI50 [15] of the same compound?
The GI50 was 1740 nM.

And the TGI [15]?
The TGI was 3300 nM.

And the GI50 [16]?
Its GI50 is 1750 nM.

What about the TGI [16] of the same compound?
Its TGI is 3270 nM.

What about the GI50 [17] of the same compound?
The GI50 was 1890 nM.

What about the TGI [17] of the same compound?
Its TGI is 3570 nM.

And the GI50 [18]?
The GI50 was 1910 nM.

What about the TGI [18] of the same compound?
Its TGI is 3920 nM.

And the GI50 [19]?
The GI50 was 1930 nM.

What about the TGI [19] of the same compound?
The TGI was 3950 nM.

What about the GI50 [20] of the same compound?
Its GI50 is 1810 nM.

And the TGI [20]?
Its TGI is 3480 nM.

What about the GI50 [21] of the same compound?
Its GI50 is 1520 nM.

What about the TGI [21] of the same compound?
Its TGI is 2920 nM.

And the GI50 [22]?
Its GI50 is 1800 nM.

What about the TGI [22] of the same compound?
Its TGI is 3360 nM.

What about the GI50 [23] of the same compound?
Its GI50 is 1770 nM.

What about the TGI [23] of the same compound?
The TGI was 3520 nM.

And the GI50 [24]?
The GI50 was 1880 nM.

What about the TGI [24] of the same compound?
The TGI was 3720 nM.

And the GI50 [25]?
Its GI50 is 1620 nM.

What about the TGI [25] of the same compound?
The TGI was 3250 nM.

And the GI50 [26]?
Its GI50 is 1780 nM.

What about the TGI [26] of the same compound?
Its TGI is 3250 nM.

And the GI50 [27]?
The GI50 was 1960 nM.

And the TGI [27]?
The TGI was 3810 nM.

What about the GI50 [28] of the same compound?
Its GI50 is 1770 nM.

And the TGI [28]?
Its TGI is 3170 nM.

What about the GI50 [29] of the same compound?
Its GI50 is 1670 nM.

What about the TGI [29] of the same compound?
The TGI was 3220 nM.

What about the GI50 [30] of the same compound?
Its GI50 is 1870 nM.

What about the TGI [30] of the same compound?
The TGI was 3570 nM.

What about the GI50 [31] of the same compound?
The GI50 was 1950 nM.

What about the TGI [31] of the same compound?
Its TGI is 3970 nM.

What about the GI50 [32] of the same compound?
Its GI50 is 1590 nM.

And the TGI [32]?
The TGI was 3400 nM.

What about the GI50 [33] of the same compound?
Its GI50 is 1840 nM.

And the TGI [33]?
Its TGI is 3380 nM.

And the GI50 [34]?
The GI50 was 1740 nM.

What about the TGI [34] of the same compound?
The TGI was 3390 nM.

What about the GI50 [35] of the same compound?
The GI50 was 1770 nM.

And the TGI [35]?
Its TGI is 3350 nM.

What about the GI50 [36] of the same compound?
Its GI50 is 1930 nM.

What about the TGI [36] of the same compound?
The TGI was 3640 nM.

And the GI50 [37]?
The GI50 was 1780 nM.

And the TGI [37]?
Its TGI is 3250 nM.

What about the GI50 [38] of the same compound?
The GI50 was 1770 nM.

What about the TGI [38] of the same compound?
Its TGI is 3350 nM.

What about the GI50 [39] of the same compound?
Its GI50 is 1900 nM.

And the TGI [39]?
The TGI was 3440 nM.

And the GI50 [40]?
The GI50 was 1790 nM.

What about the TGI [40] of the same compound?
Its TGI is 3180 nM.

What about the GI50 [41] of the same compound?
The GI50 was 1750 nM.

And the TGI [41]?
The TGI was 3150 nM.

And the GI50 [42]?
Its GI50 is 1800 nM.

And the TGI [42]?
The TGI was 3480 nM.

And the GI50 [43]?
Its GI50 is 1690 nM.

And the TGI [43]?
The TGI was 3110 nM.

What about the GI50 [44] of the same compound?
The GI50 was 1700 nM.

And the TGI [44]?
Its TGI is 3090 nM.

And the GI50 [45]?
The GI50 was 1680 nM.

And the TGI [45]?
Its TGI is 3070 nM.

What about the GI50 [46] of the same compound?
Its GI50 is 1800 nM.

And the TGI [46]?
Its TGI is 3420 nM.

And the GI50 [47]?
Its GI50 is 2020 nM.

And the TGI [47]?
The TGI was 3640 nM.

What about the GI50 [48] of the same compound?
The GI50 was 1830 nM.

And the TGI [48]?
The TGI was 3450 nM.

And the GI50 [49]?
Its GI50 is 1740 nM.

And the TGI [49]?
The TGI was 3260 nM.

What about the GI50 [50] of the same compound?
Its GI50 is 1900 nM.

What about the TGI [50] of the same compound?
Its TGI is 3590 nM.

And the GI50 [51]?
Its GI50 is 1740 nM.

And the TGI [51]?
The TGI was 3290 nM.

What about the GI50 [52] of the same compound?
The GI50 was 1790 nM.

And the TGI [52]?
Its TGI is 3390 nM.

And the GI50 [53]?
The GI50 was 2020 nM.

What about the TGI [53] of the same compound?
The TGI was 4320 nM.

What about the GI50 [54] of the same compound?
The GI50 was 1800 nM.

What about the TGI [54] of the same compound?
Its TGI is 3290 nM.

What about the GI50 [55] of the same compound?
Its GI50 is 1780 nM.

What about the TGI [55] of the same compound?
The TGI was 3420 nM.

And the GI50 [56]?
The GI50 was 1860 nM.

And the TGI [56]?
Its TGI is 3650 nM.

What about the GI50 [57] of the same compound?
Its GI50 is 1540 nM.

And the TGI [57]?
Its TGI is 2910 nM.

And the GI50 [58]?
The GI50 was 1880 nM.

And the TGI [58]?
The TGI was 3440 nM.
